Data as given in ChEMBL document CHEMBL6134837, “Synergistic Cancer Therapy: An NIR-Activated Methylene Blue-Nitrogen Mustard Prodrug for Combined Chemotherapy and Photodynamic Therapy” (J Med Chem, 2025).
The source made the active and inactive calls. The calls are words filed in the database; no cut-off is given here.

Legend:
[1] = Photoactivation of the compound assessed as release of methylene blue at 10 uM measured after 21 mins under 660 nm laser irradiation; details: 0.35 h
[2] = Photoactivation of the compound assessed as release of methylene blue by measuring photolysis half-life at 10 uM under 660 nm laser irradiation
[3] = Photoactivation of the compound assessed as fluorescence changes at 10 uM measured after 21 mins under 660 nm laser irradiation relative to under dark condition; details: 0.35 h
[4] = Stability of the compound measured after 7 days under dark condition; assay type: physicochemical; details: 168 h; time 7 day
[5] = Induction of ROS generation in DCFH solution assessed as increase in fluorescent intensity measured under laser irradiation 660 nm for continuous 9 secs; assay type: functional; details: time 9.0 sec
[6] = Induction of ROS generation in DCFH solution assessed as increase in fluorescent intensity using 525 nm pre-irradiated compound; assay type: functional
[7] = Induction of ROS generation in DCFH solution assessed as fold increase in fluorescent intensity using 525 nm pre-irradiated compound relative to non-illuminated condition; assay type: functional
[8] = Induction of ROS generation assessed as increase in singlet oxygen production using pre-irradiated compound by measuring reduction in ABDA absorption at 378 nm measured for 90 secs; assay type: functional; parameters: scale not given: the % may be the effect or the level left; details: time 90.0 sec
[9] = Induction of ROS generation assessed as increase in singlet oxygen production by measuring reduction in ABDA absorption; assay type: functional
[10] = Induction of ROS generation assessed as superoxide anion production by measuring fold increase in fluorescent intensity of DHR123 using 526 nm pre-irradiated compound relative to non-illuminated condition; assay type: functional
[11] = Induction of ROS generation assessed as superoxide anion production by measuring increase in fluorescent intensity of DHR123 using 526 nm (using non pre-irradiated condition); assay type: functional
[12] = Induction of hydroxyl radicals generation before irradiation by coumarin-3-carboxylic acid (3-CCA) assay; assay type: functional
[13] = Induction of hydroxyl radicals generation after irradiation by coumarin-3-carboxylic acid (3-CCA) assay; assay type: functional
B16-F10 [14] = assay: Cytotoxicity against mouse B16-F10 cells assessed as cell viability at 1 to 10 uM measured after 48 hrs incubation under dark by MTT assay; assay type: toxicity, cell-based; details: b16-f10, 48 h, dose 1-10 µM
B16-F10 [15] = assay: Cytotoxicity against mouse B16-F10 cells assessed as cell viability measured irradiated with 100 mW/cm^2, 660 nm light for 15 mins and measured after 48 hrs incubation by MTT assay; assay type: functional, cell-based; details: B16-F10, light or radiation study
B16-F10 [16] = assay: Cytotoxicity against mouse B16-F10 cells assessed as cell death rate measured at 2 uM irradiated with 100 mW/cm^2, 660 nm light for 15 mins and measured after 48 hrs of incubation by MTT assay relative to control; assay type: functional
B16-F10 [17] = assay: Cytotoxicity against mouse B16-F10 cells assessed as cell viability measured at 10 uM after cells irradiated with 100 mW/cm^2, 660 nm light irradiation for 15 mins followed by measured after 48 hrs incubation by MTT assay relative to control; assay type: functional; details: B16-F10, light or radiation study, read-out: Activity
B16-F10 [18] = assay: Cytotoxicity against mouse B16-F10 cells assessed as increase in dead cells by measuring red fluorescence at 10 uM measured after cells irradiated with 100 mW/cm^2, 660 nm light irradiation for 15 mins by Calcein-AM/PI staining based photodynamic therapy (PDT) assay; assay type: functional, cell-based
B16-F10 [19] = assay: Cytotoxicity against mouse B16-F10 cells assessed as cell viability at 10 uM measured absence of irradiation by Calcein-AM/PI staining based assay; assay type: toxicity; details: b16-f10, 10 µM
B16-F10 [20] = assay: Cytotoxicity against mouse B16-F10 cells assessed as increase in dead cells by measuring red fluorescence at 10 uM measured after cells irradiated with 100 mW/cm^2, 660 nm light irradiation for 3 to 15 mins by Calcein-AM/PI staining based photodynamic therapy (PDT) assay; assay type: functional, cell-based; details: time 3-15 min
B16-F10 [21] = assay: Cytotoxicity against mouse B16-F10 cells assessed as decrease in green fluorescence at 1 to 10 uM measured after cells irradiated with 100 mW/cm^2, 660 nm light irradiation for 15 mins by Calcein-AM/PI staining based photodynamic therapy (PDT) assay; assay type: functional, cell-based; details: dose 1-10 µM
B16-F10 [22] = assay: Induction of ROS generation in mouse B16-F10 cells assessed as fluorescence intensity at 10 uM measured co-incubated with DCFH-DA followed by irradiated for 3 to 15 mins; assay type: functional, cell-based; details: time 3-15 min
B16-F10 [23] = assay: Induction of ROS generation in mouse B16-F10 cells assessed as increase in intracellular superoxide anion by measuring red fluorescence in nucleus at 10 uM measured co-incubated with dihydroethidium (DHE) followed by irradiated for 3 to 15 mins; assay type: functional, cell-based; details: time 3-15 min
B16-F10 [24] = assay: Induction of ROS generation in mouse B16-F10 cells assessed as increase in intracellular singlet oxygen by measuring […] fluorescence in nucleus at 10 uM measured co-incubated with SOSG followed by irradiated for 3 to 15 mins; assay type: functional, cell-based; details: time 3-15 min
B16-F10 [25] = assay: Induction of DNA damage in mouse B16-F10 cells assessed as green fluorescence in nuclei at 10 uM measured after irradiation with […] light by gamma-H2AX based assay; assay type: functional, cell-based
B16-F10 [26] = assay: Induction of DNA damage in mouse B16-F10 cells assessed as green fluorescence in nuclei measured in absence light at 10 uM by gamma-H2AX based assay; assay type: functional, cell-based
B16-F10 [27] = assay: Induction of DNA damage in mouse B16-F10 cells assessed as condensed chromatin measured after irradiation with […] light at 10 uM by Hoechst 33342 staining based assay; assay type: functional, cell-based
B16-F10 [28] = assay: In vivo antitumor activity against mouse B16-F10 cells transplanted in BALB/c mouse model assessed as tumor growth inhibition at 200 uM administered via intratumoural injection followed by irradiated with 660 nm laser irradiation measured on day 1; assay type: functional, organism-based; details: route it(Intratumoral), time 1.0 day
B16-F10 [29] = assay: Induction of apoptosis in mouse B16-F10 cells assessed as viable cells at 10 uM measured after 8 hrs by annexin VFITC (AV)/propidium iodide (PI) based flow cytometry (reference value: 92.2%); assay type: functional; details: read-out: Activity
B16-F10 [30] = assay: Induction of apoptosis in mouse B16-F10 cells assessed as early apoptotic cells at 10 uM measured after 8 hrs by annexin VFITC (AV)/propidium iodide (PI) based flow cytometry (reference value: 1.02%); assay type: functional
B16-F10 [31] = assay: Induction of apoptosis in mouse B16-F10 cells assessed as late apoptotic cells at 10 uM measured after 8 hrs by annexin VFITC (AV)/propidium iodide (PI) based flow cytometry (reference value: 5.20%); assay type: functional
B16-F10 [32] = assay: Induction of apoptosis in mouse B16-F10 cells assessed as necrotic cells at 10 uM measured after 8 hrs by annexin VFITC (AV)/propidium iodide (PI) based flow cytometry (reference value: 1.61%); assay type: functional
B16-F10 [33] = assay: Induction of apoptosis in mouse B16-F10 cells assessed as viable cells at 10 uM measured after 8 hrs followed by irradiated (100 mW/cm^2) for 15 mins by annexin VFITC (AV)/propidium iodide (PI) based flow cytometry (reference value: 92.2%); assay type: functional; details: B16-F10, light or radiation study, read-out: Activity
B16-F10 [34] = assay: Induction of apoptosis in mouse B16-F10 cells assessed as early apoptotic cells at 10 uM measured after 8 hrs followed by irradiated (100 mW/cm^2) for 15 mins by annexin VFITC (AV)/propidium iodide (PI) based flow cytometry (reference value: 1.02%); assay type: functional
B16-F10 [35] = assay: Induction of apoptosis in mouse B16-F10 cells assessed as late apoptotic cells at 10 uM measured after 8 hrs followed by irradiated (100 mW/cm^2) for 15 mins by annexin VFITC (AV)/propidium iodide (PI) based flow cytometry (reference value: 5.20%); assay type: functional
B16-F10 [36] = assay: Induction of apoptosis in mouse B16-F10 cells assessed as necrotic cells at 10 uM measured after 8 hrs followed by irradiated (100 mW/cm^2) for 15 mins by annexin VFITC (AV)/propidium iodide (PI) based flow cytometry (reference value: 1.61%); assay type: functional
[37] = Toxicity in BALB/c mouse transplanted with mouse B16-F10 cells assessed as body weight change measured at 200 uM administered via intratumoural injection measured after 7 days; details: in vivo, other, 168 h, route it(Intratumoral), time 7 day
[38] = Drug uptake in BALB/c mouse transplanted with mouse B16-F10 cells assessed as increase in fluorescence intensity at tumor site at 200 uM administered via intratumoural injection followed by irradiated with 660 nm laser measured for 3 to 21 mins by imaging assay; assay type: ADME; details: in vivo, other, time 3-21 min, route it(Intratumoral)
B16-F10 [39] = assay: In vivo antitumor activity against mouse B16-F10 cells transplanted in BALB/c mouse model assessed as tumor growth inhibition at 200 uM administered via intratumoural injection followed by irradiated with 660 nm laser irradiation measured for 7 days; assay type: functional, organism-based; details: route it(Intratumoral), time 7.0 day
B16-F10 [40] = assay: In vivo antitumor activity against mouse B16-F10 cells transplanted in BALB/c mouse model assessed as inhibition of tumor cells in tumor slice at 200 uM administered via intratumoural injection followed by irradiated with 660 nm laser irradiation measured for 7 days by H and E staining based analysis; assay type: functional, organism-based; details: route it(Intratumoral), time 7.0 day
[41] = Hemolysis in healthy mouse RBC assessed as hemolysis rate at 1 to 256 uM measured after 2 hrs incubation by microplate reader; assay type: toxicity, cell-based, Erythrocyte; details: mouse red blood cells, dose 1-256 µM, read-out: Activity
[42] = Toxicity in BALB/c mouse transplanted with mouse B16-F10 cells assessed as heart damage measured at 200 uM administered via intratumoural injection measured after 7 days by H and E staining based analysis; assay type: tissue-based; details: in vivo, other, 168 h, route it(Intratumoral), time 7 day
[43] = Toxicity in BALB/c mouse transplanted with mouse B16-F10 cells assessed as liver damage measured at 200 uM administered via intratumoural injection measured after 7 days by H and E staining based analysis; assay type: tissue-based; details: in vivo, other, 168 h, route it(Intratumoral), time 7 day
[44] = Toxicity in BALB/c mouse transplanted with mouse B16-F10 cells assessed as spleen damage measured at 200 uM administered via intratumoural injection measured after 7 days by H and E staining based analysis; assay type: tissue-based; details: in vivo, other, 168 h, route it(Intratumoral), time 7 day
[45] = Toxicity in BALB/c mouse transplanted with mouse B16-F10 cells assessed as lung damage measured at 200 uM administered via intratumoural injection measured after 7 days by H and E staining based analysis; assay type: tissue-based; details: in vivo, other, 168 h, route it(Intratumoral), time 7 day
[46] = Toxicity in BALB/c mouse transplanted with mouse B16-F10 cells assessed as kidney damage measured at 200 uM administered via intratumoural injection measured after 7 days by H and E staining based analysis; assay type: tissue-based; details: in vivo, other, 168 h, route it(Intratumoral), time 7 day

CN(C)c1ccc2c(c1)Sc1cc(N(C)C)ccc1N2C(=O)Nc1ccc(N(CCCl)CCCl)cc1
Activity [1]: 100% | t1/2 [2]: 11 min | fold change (FC) [3]: 7 | Stability [4]: Stable | Activity [5]: inactive | Activity [6]: Active | fold change (FC) [7]: 69 | Activity [8]: 97% | Activity [9]: inactive | fold change (FC) [10]: 113 | Activity [11]: inactive | Activity [12]: inactive | Activity [13]: inactive | Activity (B16-F10 [14]): Non-toxic | IC50 (B16-F10 [15]): 1.35 µM | Activity (B16-F10 [16]): 62.2% | viability at 10 µM (B16-F10 [17]): 9.4% | Activity (B16-F10 [18]): Active; Almost Exclusively Exhibiting Red Fluorescence Signal | Activity (B16-F10 [19]): Non-toxic | Activity (B16-F10 [20]): Active | Activity (B16-F10 [21]): Active | Activity (B16-F10 [22]): Active; Fluorescence Intensity Of Dcfh Within Cells Exhibited A Positive Correlation With The Duration Of Light Exposure | Activity (B16-F10 [23]): Active | Activity (B16-F10 [24]): Active | Activity (B16-F10 [25]): Active; Effect Is Higher Compared With Nm And Mb Group | Activity (B16-F10 [26]): Not active; Compound Showed Only Minimal Green Fluorescence | Activity (B16-F10 [27]): Active | Activity (B16-F10 [28]): Active; Compound Exhibit Strong Activity Relative To Mb+Light Group | viability at 10 µM (B16-F10 [29]): 89.2% | Activity (B16-F10 [30]): 6.85% | Activity (B16-F10 [31]): 3.27% | Activity (B16-F10 [32]): 0.65% | viability at 10 µM (B16-F10 [33]): 23.8% | Activity (B16-F10 [34]): 44.8% | Activity (B16-F10 [35]): 30.9% | Activity (B16-F10 [36]): 0.45% | Activity [37]: Non-toxic | Drug uptake [38]: Active | Activity (B16-F10 [39]): Active | Activity (B16-F10 [40]): Active; Compared With Nm And Mb + Irradiation Group Â?? Compound Showed More Pronounced Effect | hemolysis at 2 h, up to 256 µM [41]: < 5% | Activity [42]: Non-toxic | Activity [43]: Non-toxic | Activity [44]: Non-toxic | Activity [45]: Non-toxic | Activity [46]: Non-toxic

CN(C)c1ccc2nc3ccc(=[N+](C)C)cc-3sc2c1
Activity (B16-F10 [25]): Active

CN(C)c1ccc2nc3ccc(N(C)C)cc3[s+]c2c1.[Cl-] [METHYLENE BLUE ANHYDROUS]
viability at 10 µM (B16-F10 [17]): 22.5% | viability at 10 µM (B16-F10 [33]): 33.1% | Activity (B16-F10 [34]): 54.8% | Activity (B16-F10 [35]): 11.3% | Activity (B16-F10 [36]): 0.83%
